In brackets after ≈: the same amount, converted by molar mass. Read-outs that look alike come from different tables or passages of the source.
Experiments:
clinical = conditions: human, in vivo, intravenous, 50 mg/kg
haploidentical HCT [1] = conditions: CTN 0603; cited from earlier work
[2] = LexiComp monograph; cited from earlier work
[3] = constituted, cited from earlier work
haploidentical HCT [4] = conditions: at 1 year; cited from earlier work
[5] = cited from earlier work
[6] = cited from earlier work; remark: listed apart in the source
[7] = 1-octanol/water (pH 7.4) buffer solution; cited from earlier work

| SMILES | half-life (clinical) | relapse rate (haploidentical HCT [1]) | elimination half-life [2] | physically and chemically stable ([3]; refrigerated) | physically and chemically stable ([3]; room temperature) | relapse rate (haploidentical HCT [4]) | solubility in acetone ([5]; acetone, in words) | solubility in ethanol ([5]; in words) | solubility in methanol ([5]; in words) | solubility in an acidic medium ([5]; pH 3.6) | solubility in water ([5]; pH 7.4) | solubility in water ([5]; water, in words) | pKa ([6]; morpholino group) | pKa ([6]; phenolic group) | apparent partition coefficient [7] | solubility in chloroform ([5]; chloroform, in words) |
| --- | --- | --- | --- | --- | --- | --- | --- | --- | --- | --- | --- | --- | --- | --- | --- | --- |
| O=P1(N(CCCl)CCCl)NCCCO1 (stereo not shown) [Cyclophosphamide, 2-[bis(2-cholorethyl)amino]tetrahydro-2H-1,3,2-oxazaphosphorine 2-oxide monohydrate] | 2.5 days | 45% | 3 to 12 h | six | 24 h | 51% | – | – | – | – | – | – | – | – | – | – |
| COc1c(C)c2c(c(O)c1C/C=C(\C)CCC(=O)OCCN1CCOCC1)C(=O)OC2 [Mycophenolate mofetil, 2-morpholinoethyl (E)-6-(1,3-dihydro-4-hydroxy-6-methoxy-7-methyl-3-oxo-5-isobenzofuranyl)-4-methyl-4-hexenoate] | – | – | – | – | – | – | freely soluble | sparingly soluble | soluble | 4.27 mg/mL (≈ 9.85 mM) | 43 µg/mL (≈ 0.0992 mM) | slightly soluble | 5.6 | 8.5 | 238 | – |
| C=CC[C@@H]1/C=C(\C)C[C@H](C)C[C@H](OC)[C@H]2O[C@@](O)(C(=O)C(=O)N3CCCC[C@H]3C(=O)O[C@H](/C(C)=C/[C@@H]3CC[C@@H](O)[C@H](OC)C3)[C@H](C)[C@@H](O)CC1=O)[C@H](C)C[C@@H]2OC [Tacrolimus] | – | – | – | – | – | – | – | freely soluble | very soluble | – | – | practically insoluble | – | – | – | very soluble |

From patent publication US12678464B2, “Methods for stem cell transplantation” (The UAB Research Foundation, priority 2015, dated 2026)
